Measurements reported in patent publication US7745401B2, “Antifungal peptides and methods of use thereof” (The Board of Regents of the University of Oklahoma, priority 2005, dated 2010).
Entries after “also recorded” stand apart in the source; their conditions may differ. Where no end group is shown, it is not given here.

What was measured:
C. parapsilosis = test: In vitro candidacidal assay, C. parapsilosis; type: cell-based; conditions: 100 μg/ml (37.5 μM)
Method: (§1) Isolates used in this study included Candida albicans (ATCC 28367), three fluconazole sensitive mucosal isolates of C. albicans, designated A-22, A-111 and A-155, three fluconazole resistant mucosal isolates of C. albicans designated A-46, A-5, and A-20, and a blood isolate of C. albicans designated WDO. Isolates were stored frozen at −70° C. and streaked onto Sabouraud Dextrose Agar (Sigma, St. Louis, Mo.) plates and maintained on plates at 4° C., with subculturing onto new plates approximately every 10 days for the duration of the studies. Fluconazole resistance was evaluated. […]
(§2) Stock solutions of all peptides were made up at concentrations of 1 mg/ml in sterile endotoxin-free water for irrigation (Baxter, Deerfield, Ill.). […] The optical density was read and the culture adjusted to 500 blastospores/100 μl in tryptone saline pH 5.5 (Shafer et al., Infect Immun, 1984). […] The colony forming units (cfu) were counted and the fungicidal activity was expressed as percent killed and calculated according to the following equation: [(control cfu−test cfu)/control cfu]×100=% killed. […] Test cfu is determined by counting the number of colonies present after incubation in tryptone saline containing the peptide. […]

Candida albicans = type: cell-based; conditions: for activity against C. albicans: in vitro killing efficacy; for activity against fluconazole resistant isolates: isolates A-5 and A-20; for activity against fluconazole sensitive isolates: isolates A-155, A-22 and A-111, 400 μg/ml; for killing of blood isolate of Candida: blood isolate of C. albicans, 400 μg/ml (150 μM); for peptide concentration required for activity: fluconazole resistant isolate A-46; for activity at the lower concentration: fluconazole resistant isolates A-5 and A-20, 200 μg/ml or 75 μM; for fungicidal or fungistatic effect: isolates A-5, A-20, A-46 and A-155, viable colony counts versus starting inoculum
Method: (§3) Isolates used in this study included Candida albicans (ATCC 28367), three fluconazole sensitive mucosal isolates of C. albicans, designated A-22, A-111 and A-155, three fluconazole resistant mucosal isolates of C. albicans designated A-46, A-5, and A-20, and a blood isolate of C. albicans designated WDO. Isolates were stored frozen at −70° C. and streaked onto Sabouraud Dextrose Agar (Sigma, St. Louis, Mo.) plates and maintained on plates at 4° C., with subculturing onto new plates approximately every 10 days for the duration of the studies. Fluconazole resistance was evaluated. Three clinical isolates of C. glabrata, two clinical isolates of C. dubliniensis, and single isolate each of C. krusei, C. guilliermondii, C. parapsilosis, C. pseudotropicalis and C. tropicalis and two isolates of Saccharomyces cerevisiae were also used in this study and were maintained on Sabouraud Dextrose agar plates at 4° C. A single yeast colony was cultured overnight at 33° C. in 1% phytone peptone broth (Becton Dickinson, Sparks Md.) with 0.1% D-glucose (Sigma).
Stock solutions of all peptides were made up at concentrations of 1 mg/ml in sterile endotoxin-free water for irrigation (Baxter, Deerfield, Ill.). Subsequent dilutions were all made in tryptone saline pH 5.5 (Shafer et al., Infect Immun, 1984). An aliquot (100 μl) of an overnight culture of a single colony grown at 33° C. in 1% phytone peptone broth with 0.1% glucose was subcultured in 5 ml of 1% phytone peptone broth with 0.1% glucose and incubated in a shaking water bath (80 oscillations per min, Precision, Winchester, Va.) for 90 min at 33° C. to yield a logarithmic culture. […] The optical density was read and the culture adjusted to 500 blastospores/100 μl in tryptone saline pH 5.5 (Shafer et al., Infect Immun, 1984). To 100 μl of the organism suspension in a 96 well sterile polystyrene microtiter plate (Becton Dickinson, Franklin Lakes, N.J.) was added 100 μl of the peptide (final concentrations 400 μg/ml and 200 μg/ml) or 100 μl of tryptone saline. The latter served as a control. The microtiter plate was incubated at 37° C. for 4 hr and 100 μl of the contents from each well was plated on Sabouraud Dextrose agar plates and incubated at 37° C. overnight. The colony forming units (cfu) were counted and the fungicidal activity was expressed as percent killed and calculated according to the following equation: [(control cfu−test cfu)/control cfu]×100=% killed. Control cfu is indicated by the number of colonies present after […] of incubation in tryptone saline alone in the absence of peptide. Test cfu is determined by counting the number of colonies present after incubation in tryptone saline containing the peptide. Each experimental point was performed in triplicate.
C. albicans (ATCC 28367) was used to standardize the in vitro killing assay. We explored the optimal growth conditions (temperature and time, 25° C. for 5 h and 33° C. for 90 min), numbers of blastospores per well (200, 400, 500, 600, 800, and 1000 cfu), range of peptide concentrations (750, 500, 400, 200 and 100 μg/ml) and the contact time between peptide and Candida (1, 2 and 4 hr) for killing to occur. […] The 90 minute incubation was more convenient technically and was therefore employed routinely. The optimum numbers of cfu per well was determined to be 500 and an incubation time of 4 hr at 37° C. between Candida and peptide was required to obtain optimal killing.

C. guilliermondii = test: In vitro candidacidal assay, C. guilliermondii; type: cell-based; conditions: 100 μg/ml (37.5 μM)
Method: as §1, §2

[1] = tested on: Salmonella typhimurium, Escherichia coli, and Pseudomonas aeruginosa; conditions: Gram negative organisms; cited from earlier work
C. pseudotropicalis = test: In vitro candidacidal assay, C. pseudotropicalis; type: cell-based; conditions: 400 μg/ml (150 μM)
Method: as §1, §2

S. cerevisiae = test: FUN-1 vital dye yeast viability, confocal microscopy, S. cerevisiae; type: cell-based, Saccharomyces cerevisiae; conditions: 400 μg/ml, 37° C. for 2 hr
Method: (§4) Yeast viability was also assessed using the FUN-1 Live/Dead Yeast Viability Kit (Molecular Probes, Eugene, Oreg.). The methodology employed was essentially according to the protocol provided by the vendor for use with fluorescent microscopy. Briefly, yeast cultures were prepared exactly as stated above. C. glabrata, C. pseudotropicalis, C. albicans (fluconazole sensitive isolate) and S. cerevisiae (5×10^5 cfu in 100 μl of tryptone saline) were incubated (37° C. for 2 hr) in the absence or presence of peptide (CAP37(20-44)nat and CAP37(20-44)ser26/42) at a final concentration of 400 μg/ml. At the end of the incubation period, the samples were transferred to microcentrifuge tubes and centrifuged (10,000×g for 3 min at room temperature). The supernatant was removed and the pellet resuspended in 25 μl of GH solution (2% D-glucose containing 10 mM Na-HEPES, pH 7.2) as described in the technical data sheet provided by the vendor. A working solution of the FUN-1 reagent (100 μl of 10 μM) was prepared from 10 mM stock solution and 25 μl (final concentration 5 μM) added to the yeast and incubated at room temperature for 30 min. A sample (10 μl) was placed on a microscope slide and staining observed under a Leica TCS NT confocal microscope using Ar-488 and Kr-568 Lasers and 63x Plan APO 1.2 NA water immersion objective. Images were scanned and analyzed using the Leica TCS software.

[2] = tested on: C. albicans (fluconazole sensitive isolate); test: FUN-1 vital dye yeast viability, confocal microscopy, C. albicans; type: cell-based, Candida albicans; conditions: 400 μg/ml, 37° C. for 2 hr
Method: as §4

C. glabrata [3] = test: FUN-1 vital dye yeast viability, confocal microscopy, C. glabrata; type: cell-based; conditions: 400 μg/ml, 37° C. for 2 hr
Method: as §4

C. dubliniensis = test: In vitro candidacidal assay, C. dubliniensis; type: cell-based; conditions: two isolates; 400 μg/ml (150 μM)
Method: as §3
as §2, with “Ill.). Subsequent dilutions were all made in tryptone saline pH 5.5 (Shafer et al., Infect Immun, 1984).” for “Ill.).”

C. tropicalis = test: In vitro candidacidal assay, C. tropicalis; type: cell-based; conditions: 400 μg/ml (150 μM)
Method: as §3
as §2, with “Ill.). Subsequent dilutions were all made in tryptone saline pH 5.5 (Shafer et al., Infect Immun, 1984).” for “Ill.).”

[4] = tested on: hyphal forms of Candida albicans; test: In vitro candidacidal assay on hyphal forms of C. albicans; type: cell-based; conditions: clinical isolates; 400 and 200 μg/ml
Method: To induce hyphal formation a single colony of C. albicans isolates A-5, A-20, A-22, A-46, A-11 and A-155 from a Sabouraud Dextrose agar plate was transferred to 1% phytone peptone broth with 0.1 glucose and grown overnight at 33° C. An aliquot (500 μl) of the overnight culture was subcultured in 5 ml of RPMI-1640 (Celigro Mediatech Inc, Herndon, Va.)) with 10% fetal calf serum (Invitrogen, Grand Island, N.Y.) for 90 min at 37° C. Hyphal formation was determined under phase microscopy.
as §2, with “Ill.). Subsequent dilutions were all made in tryptone saline pH 5.5 (Shafer et al., Infect Immun, 1984).” for “Ill.).”

C. glabrata [5] = test: In vitro candidacidal assay, C. glabrata; type: cell-based; conditions: one isolate of three; 400 μg/ml (150 μM)
Method: as §3
as §2, with “Ill.). Subsequent dilutions were all made in tryptone saline pH 5.5 (Shafer et al., Infect Immun, 1984).” for “Ill.).”

Candida = conditions: peptides isolated from human platelets; cited from earlier work

| Molecule | activity against C. albicans (Candida albicans) | activity against fluconazole resistant isolates (Candida albicans) | activity against fluconazole sensitive isolates (Candida albicans) | bactericidal activity [1] | activity against C. dubliniensis (C. dubliniensis) | killing (Candida albicans) [%] | killing of blood isolate of Candida (Candida albicans) | peptide concentration required for activity (Candida albicans) [µg/mL] | activity at the lower concentration (Candida albicans) | fungicidal or fungistatic effect (Candida albicans) | activity against C. tropicalis (C. tropicalis) | activity against C. glabrata (C. glabrata [5]) | candidacidal activity (Candida) | further results |
| --- | --- | --- | --- | --- | --- | --- | --- | --- | --- | --- | --- | --- | --- | --- |
| NQGRHFSGGALIHARFVMTAASSFQ (NQGRHFSGGALIHARFVMTAASSFQ; listed as Homo sapiens) [CAP37(20-44)ser26/42, cysteines at positions 26 and 42 replaced by serine] | significantly abrogated activity | moderately active | lack of activity | inactive compound |  |  |  |  |  |  |  |  |  | activity against C. parapsilosis (C. parapsilosis): some activity; activity against C. guilliermondii (C. guilliermondii): some activity; activity against C. pseudotropicalis (C. pseudotropicalis): some activity; cell viability (S. cerevisiae): virtually all cells were viable; blastoconidia alive [2]: 30%; cell viability (C. glabrata [3]): virtually all cells were viable |
| NQGRHFCGGALIHARFVMTAASSFQ [CAP37(20-44)ser42, NQGRHFCGGALIHARFVMTAASSFQ] | significant activity | highly active | strongly active |  | more effective against C. dubliniensis than CAP37(20-44)nat; also recorded: effective against both isolates of C. dubliniensis and one isolate of C. glabrata, although to a lesser extent | > 75 | killed | 400 | significant activity | fungicidal rather than fungistatic | killed | effective against both isolates of C. dubliniensis and one isolate of C. glabrata, although to a lesser extent |  | activity on hyphal forms of C. albicans [4]: greater activity |
| NQGRHFSGGALIHARFVMTAASCFQ [CAP37(20-44)ser26, NQGRHFSGGALIHARFVMTAASCFQ] | significant activity | highly active | strongly active |  | effective against both isolates of C. dubliniensis and one isolate of C. glabrata, although to a lesser extent | > 75 | killed | 400 | significant activity | fungicidal rather than fungistatic | killed | effective against both isolates of C. dubliniensis and one isolate of C. glabrata, although to a lesser extent |  |  |
| PF-4: platelet factor-4, isolated from human platelets (protein, UniProt P02776 32-101, looked up) Platelet factor 4: EAEEDGDLQCLCVKTTSQVRPRHITSLEVIKAGPHCPTAQLIATLKNGRKICLDLQAPLYKKIIKKLLES |  |  |  |  |  |  |  |  |  |  |  |  | exhibited candidacidal activity |  |
| CAP37: cationic antimicrobial protein of Mr 37 kDa of the human neutrophil (protein) IVGGRKARPRQFPFLASIQNQGRHFCGGALIHARFVMTAASCFQSQNPGVSTVVLGAYDLRRRERQSRQTFSISSMSENGYDPQQNLNDLMLLQLDREANLTSSVTILPLPLQNATVEAGTRCQVAGWGSQRSGGRLSRFPRFVNVTVTPEDQCRPNNVCTGVLTRRGGICNGDGGTPLVCEGLAHGVASFSLGPCGRGPDFFTRVALFRDWIDGVLNNPGP |  |  |  | strong bactericidal activity |  |  |  |  |  |  |  |  |  |  |
| RANTES: Regulated upon Activation Normal T cell Expressed and Secreted protein, isolated from human platelets (protein, UniProt P13501 24-91, looked up) C-C motif chemokine 5: SPYSSDTTPCCFAYIARPLPRAHIKEYFYTSGKCSNPAVVFVTRKNRQVCANPEKKWVREYINSLEMS |  |  |  |  |  |  |  |  |  |  |  |  | exhibited candidacidal activity |  |
